In patent US8629143B2, “Potassium channel modulators” (AbbVie Inc., priority 2009, dated 2014):

Columns and labels:
[1] = molecular target: T1, KCNQ 2/3 channels (HEK293 cells stably expressing human KCNQ2 and KCNQ3 subunits) (Homo sapiens, UniProt O43525+O43526); assay: KCNQ2/3 channel activation, thallium flux FLIPR assay with BTC-AM dye; type: cell-based; details: for Emax: HEK293, maximum response relative to the response produced by 10 μM retigabine (set at 100%), read-out: Max. %; for EC50: HEK293 cells expressing human KCNQ2 and KCNQ3, thallium flux, FLIPR
T1 construct: expressed in transfected cells; host or cells: HEK293
Summary of the method: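 HEK293 cells stably expressing human KCNQ2/KCNQ3 were loaded with BTC-AM (3 μg/mL, 2 h, RT) and preincubated with compound for 4 min in pH 7.3 gluconate buffer containing 0.1 mM ouabain. Flux was triggered by 6 mM TlNO3/10 mM K2SO4 and read for 3 min; EC50 came from summed responses over basal, with maximum relative to 10 μM retigabine (100%).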

[2] = test system: Adult male Sprague-Dawley rats; assay: Spinal nerve ligation (SNL) model of neuropathic pain; type: in vivo; details: rat SNL model (L5/L6 ligation), about 30 mg/kg, tactile allodynia
Description: (§1) Adult male Sprague-Dawley rats (250-300 g body weight, Charles River Laboratories, Portage, Mich.) were used. Animal handling and experimental protocols were approved by the Institutional Animal Care and Use Committee (IACUC) at Abbott Laboratories. For all surgical procedures, animals were maintained under isoflurane anesthesia (4-5% to induce, 1-3% to maintain), and the incision sites were sterilized using a 10% povidone-iodine solution prior to and after surgeries.
Tactile (mechanical) allodynia was measured using calibrated von Frey filaments (Stoelting, Wood Dale, Ill.) as described in Chaplan, S. R., F. W. Bach, J. M. Pogrel, J. M. Chung and T. L. Yaksh, 1994, Quantitative assessment of tactile allodynia in the rat paw, J. Neurosci. Methods, 53, 55. Rats were placed into inverted individual plastic containers (20×12.5×20 cm) on top of a suspended wire mesh grid, and acclimated to the test chambers for 20 minutes. The von Frey filaments were presented perpendicularly to the plantar surface of the selected hind paw, and then held in this position for approximately 8 sec with enough force to cause a slight bend in the filament. Positive responses included an abrupt withdrawal of the hind paw from the stimulus, or flinching behavior immediately following removal of the stimulus. A 50% withdrawal threshold was determined using an up-down procedure (Dixon, W. J., 1980, Efficient analysis of experimental observations, Ann. Rev. Pharmacol. Toxicol., 20, 441). […] Tactile allodynia thresholds were also assessed in several control groups, including naive, sham-operated, and saline infused animals as well as in the contralateral paws of nerve-injured rats. To evaluate the anti-nociceptive effects, animals were administered vehicle or test compound and tactile allodynia was assessed 30 minutes after i.p. administration.
A model of spinal nerve ligation-induced (SNL model) neuropathic pain as originally described by Kim and Chung (Kim, S. H. and J. M. Chung, 1992, Pain 50, 355) was used to test a compound of the present application The left L5 and L6 spinal nerves of the rat were isolated adjacent to the vertebral column and tightly ligated with a 5-0 silk suture distal to the DRG, and care taken to avoid injury of the L4 spinal nerve. The same procedure was performed on Sham rats, but without nerve ligation. All animals were allowed to recover for at least one week and not more than three weeks prior to assessment of tactile allodynia.

[3] = test system: Adult male Sprague-Dawley rats; assay: Capsaicin-induced secondary mechanical hypersensitivity; type: in vivo; details: rat, about 30 mg/kg i.p., tactile allodynia 30 minutes after dosing, 180 minutes post-capsaicin
Description: as §1
Rats were allowed to acclimate to the study room for 1 h. […] Secondary mechanical hyperalgesia was measured at the heel away from the site of injection at 180 minutes following capsaicin (Joshi et al 2006, Neuroscience 143, 587-596). […]
Tactile (mechanical) allodynia was measured using calibrated von Frey filaments (Stoelting, Wood Dale, Ill.) as described in Chaplan, S. R., F. W. Bach, J. M. Pogrel, J. M. Chung and T. L. Yaksh, 1994, Quantitative assessment of tactile allodynia in the rat paw, J. Neurosci. […] A 50% withdrawal threshold was determined using an up-down procedure (Dixon, W. J., 1980, Efficient analysis of experimental observations, Ann. Rev. Pharmacol. Toxicol., 20, 441). […] Tactile allodynia thresholds were also assessed in several control groups, including naive, sham-operated, and saline infused animals as well as in the contralateral paws of nerve-injured rats. […]
Tactile allodynia was measured as described above.

| SMILES | Emax [1] [%] | EC50 [1] [nM] | change in paw withdrawal latency versus vehicle [2] | change in paw withdrawal latency versus vehicle [3] |
| --- | --- | --- | --- | --- |
| O=C(C[C@H]1C[C@@H]2CC[C@H]1C2)Nn1nc(-c2ccc(C(F)(F)F)cc2)c2ccccc2c1=O (racemic) [Example 150, (±)-2-(exo-bicyclo[2.2.1]hept-2-yl)-N-{1-oxo-4-[4-(trifluoromethyl)phenyl]phthalazin-2(1H)-yl}acetamide] | 138 | < 100 | statistically significant change |  |
| O=C(CC12CC3CC(CC(C3)C1)C2)Nn1nc(-c2ccccc2)c2ccccc2c1=O [Example 17, 2-(1-adamantyl)-N-(1-oxo-4-phenylphthalazin-2(1H)-yl)acetamide] | 205 | < 100 |  | statistically significant change |
| CC1(C)[C@@H]2C[C@H]1[C@H](CC(=O)Nn1nc(-c3ccc(Cl)cc3)c3ccccc3c1=O)C(F)(F)C2 [Example 88, N-[4-(4-chlorophenyl)-1-oxophthalazin-2(1H)-yl]-2-[(1S,2S,5R)-3,3-difluoro-6,6-dimethylbicyclo[3.1.1]hept-2-yl]acetamide] | 60 | 500 to 1000 | statistically significant change |  |

The next lines start with results.

| Emax [1] [%] | EC50 [1] [nM] | SMILES | change in paw withdrawal latency versus vehicle [2] | change in paw withdrawal latency versus vehicle [3] |
| --- | --- | --- | --- | --- |
| 100 | 100 to 500 | O=C(Cc1ccc(Cl)cc1)Nn1nc(-c2ccc(Br)cc2)c2ccccc2c1=O [Example 3, N-[4-(4-bromophenyl)-1-oxophthalazin-2(1H)-yl]-2-(4-chlorophenyl)acetamide] |  | statistically significant change |
| 101 | 100 to 500 | O=C(Cc1ccccc1)Nn1nc(-c2ccc(Cl)cc2)c2ccccc2c1=O [Example 91, N-[4-(4-chlorophenyl)-1-oxophthalazin-2(1H)-yl]-2-phenylacetamide] | statistically significant change |  |
| 120 | 100 to 500 | O=C(Cc1ccc(Cl)cc1)Nn1nc(-c2ccc(Cl)cc2)c2ccccc2c1=O [Example 117, 2-(4-chlorophenyl)-N-[4-(4-chlorophenyl)-1-oxophthalazin-2(1H)-yl]acetamide] | statistically significant change |  |
